# T1: h-FXIIa (Homo sapiens, UniProt P00748)
# T1 construct: purchased Enzyme Research Laboratories FXIIa 1212A
# T1 sequence (P00748 373-615 limits assumed): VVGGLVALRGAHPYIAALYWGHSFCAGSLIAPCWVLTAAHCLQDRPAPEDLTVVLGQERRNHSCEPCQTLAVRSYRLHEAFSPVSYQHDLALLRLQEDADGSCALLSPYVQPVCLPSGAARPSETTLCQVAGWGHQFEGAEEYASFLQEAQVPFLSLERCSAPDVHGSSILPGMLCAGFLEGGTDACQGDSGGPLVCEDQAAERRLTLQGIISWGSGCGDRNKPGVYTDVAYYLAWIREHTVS
# T1 sequence (P00748 20-372 partner limits assumed): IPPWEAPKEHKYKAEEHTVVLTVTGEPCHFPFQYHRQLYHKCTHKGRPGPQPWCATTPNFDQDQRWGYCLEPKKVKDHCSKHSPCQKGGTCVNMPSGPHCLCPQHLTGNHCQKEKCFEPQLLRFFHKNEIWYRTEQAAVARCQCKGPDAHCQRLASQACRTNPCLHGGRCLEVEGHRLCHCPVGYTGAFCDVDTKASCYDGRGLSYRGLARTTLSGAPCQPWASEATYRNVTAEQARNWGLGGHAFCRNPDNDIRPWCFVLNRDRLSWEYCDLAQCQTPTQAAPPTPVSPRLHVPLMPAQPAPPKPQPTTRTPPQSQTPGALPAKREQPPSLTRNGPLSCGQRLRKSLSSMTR
# Experiments:
# contact activation = assay: Thrombin generation (CAT) in platelet poor plasma contact activated with kaolin; type: biochemical, human; conditions: for 4 × lag-time (ng/ml) / 4 × lag-time (μM): concentration that prolongs clotting time of kaolin contact activated plasma four times
# Procedure: Thrombin generation was carried out according to WO2003/093831.
# Following a double centrifugation at 2500×g for 15 min at room temperature, platelet poor plasma (PPP) was collected from the upper half volume of plasma supernatant, quick frozen and stored at −80° C. The absence of platelet and leucocyte in PPP was checked with an ADVIA 120 counter (Bayer Diagnostics, NY, USA).
# Recombinant human tissue factor Innovin® was obtained from Dade Behring (Marburg, Germany) and used at a final concentration of 0.5 pM in PRP and 1 or 5 pM in PPP samples. The phospholipid vesicles used at a final concentration of […] were obtained from Avanti Polar Lipids (Alabaster, Ala., USA) and consisted of 20 mol % phosphatidylserine (PS), 20 mol % phosphatidylethanolamine (PE) and 60 mol % phosphatidylcholine (PC) and were prepared by extrusion method (9,10). Kaolin light (hydrated aluminium silicate) was obtained from Baker Harrison ltd, (Ilford, UK).
# Hepes-buffered saline contained 20 mM Hepes (Sigma Aldrich, l'Ile d'Abeau Chesnes, France), 140 mM NaCl and 5 mg/mL bovine serum albumin (BSA) (Euromedex, Souffelweyersheim, France), pH 7.35. This buffer was stored at −20° C. until use. A fresh mixture of fluorogenic substrate and CaCl2 was prepared before each experiment. Fluorogenic substrate, Z-Gly-Gly-Arg-AMC, was obtained from Bachem (Bubendorf, Switzerland). The mixture of fluorogenic substrate 2.5 mM and CaCl2 0.1 M was prepared using buffer containing Hepes 20 mM and 60 mg/mL BSA, pH 7.35. The Calibrator with the activity of 600 nM human thrombin was obtained from Thrombinoscope BV (Maastricht, The Netherlands). Transparent, round bottom Greiner microtiter plates (Greiner ref 65204, Poitiers, France) were used.
# Thrombin generation was measured using Calibrated Automated Thrombography (CAT) according to the methodology of WO2003/093831 and a 96-well plate fluorometer (Fluoroscan Ascent Reader, Thermolab systems OY, Helsinki, Finland) equipped with a 390/460 nm filter set. Briefly, 80 μL of plasma is dispensed into the wells of round-bottom 96 well-microtiter plates. 20 μL of a mixture containing tissue factor and phospholipids is added to the PPP sample; alternatively, in order to obtain contact activation, the citrated plasma is preincubated for at least 10 min with 1 mg/ml of Kaolin light. The starting reagent (20 μL per well) contains fluorogenic substrate and CaCl2. […] The most important parameters that can be derived from CAT are lag time, endogenous thrombin potential corresponding to the area under the CAT curve, peak height of thrombin and time to peak.
# [1] = Retention of biological activity at room temperature and in boiling water; type: physicochemical; conditions: for biological activity after heating: 0.1 mM solution in closed ampoule in boiling water for 60 min
# Procedure: (Example 7) This means that, unlike CTI, it can be added to citrate tubes that can be sterilized and used under clinical conditions. About 0.10 mg of TICA1 would be required per vacuum tube meant to take 10 ml of blood.
# h-FXIIa = target: T1, h-FXIIa; assay: Stability of CTI, PTI and TICA at RT and at 95° C., read as inhibition of h-FXIIa; type: physicochemical; conditions: for Residual activity / Calculated total I / Activity of FXIIa / Free FXIIa: inhibitor exposed 60 minutes to 95° C.; for Calculated total I / Activity of FXIIa / Free FXIIa: added CTI 8.1 nM, TICA1 306 nM; for Activity of FXIIa / Free FXIIa: total FXIIa 9.33 nM
# Procedure: Materials • S2302 From Chromogenic, lot # N0398718 SEQ0860, exp. date 2012-07. Water added on 7 Oct. […] On 3 Aug. […] Product code FXIIa 1212A, lot #FXIIa 2520PL. Bottle with 0.5 mg was reconstituted with 370 μl pure water. […] Buffer 4 mM NaAc, 150 mM NaCl (pH 5.3). Preparation was divided into 20 μl amounts and frozen at −80° C. • Hepes735 140 mM NaCl, 20 mM Hepes, 0.02% NaN3 (pH 7.35). • BSA5 Hepes735+5 mg/ml BSA. • CTI Prepared on 17 Dec. 2004, 0.141 mg/ml, i.e. 0.141/12028=11.7*10^−6 M (11.7 μM). One portion was thawed and divided into 3 parts. […]
# Stock FXIIa was diluted 700× in BSA5. The inhibitor was diluted in BSA5 as indicated. Wells contained 70 μl diluted FXIIa (5 nM final), 70 μl inhibitor and 20 μl S2302 (475 or 462.5 μM final). The reaction was started after 5 min heating on the heating plate with S2302. Filters 405 nm and 490 nm reference. Found ΔmA/min was multiplied by 2.14 to get the figure for a 1 cm path.
# The residual activity (V) was fitted against the inhibitor concentration with equation:
# V=(E+(sqrt(Ê2+2*E*(Ki−I)+Î2+2*I*Ki+Kî2)−E−I−Ki)/2)*kcat*S/(Km+S)
# in which E=[FXIIa], Ki is the dissociation constant, I=[Inhibitor], kcat and Km are Michaelis constants and S=[S2302].
# To calculate the concentration of I the equation I=x·(x−E−Ki)/(x−E) was used. In this equation is I the calculated inhibitor concentration, x=the residual activity of FXIIa (free FXIIa), E the total FXIIa concentration (=9.33 nM), and Ki the dissociation or inhibitor constant.
# [2] = contact activation of PPP by kaolin
# [3] = Kaolin, CTI 0.72 μM (8.64 μg/ml)
molecule,measurement,setting,value
CC[C@H](C)[C@@H]1NC(=O)[C@H](CCCNC(=N)N)NC(=O)[C@@H]2CCCN2C(=O)[C@@H](NC(=O)[C@@H](NC(=O)[C@@H](N)CCCNC(=N)N)C(C)C)CSSC[C@@H]2NC(=O)[C@H](CCC(=O)O)NC(=O)[C@H](C)NC(=O)[C@H](CC(C)C)NC(=O)[C@@H]3CSSC[C@@H](C(=O)NCC(=O)O)NC(=O)[C@H](Cc4ccc(O)cc4)NC(=O)CNC(=O)[C@H](Cc4c[nH]cn4)NC(=O)[C@H](CCC(=O)O)NC(=O)[C@H](CC(C)C)NC(=O)[C@H](CSSC[C@H](NC(=O)[C@H](CCCCN)NC(=O)[C@H](CCSC)NC(=O)[C@H](CC(C)C)NC1=O)C(=O)N[C@@H](CCCCN)C(=O)N[C@@H](CCCCN)C(=O)N[C@@H](CC(=O)O)C(=O)N[C@@H](CO)C(=O)N[C@@H](CC(=O)O)C(=O)N3)NC(=O)[C@H](C(C)C)NC2=O [TICA1],effect on lag time of thrombin generation triggered by contact activation,contact activation; FIG. 1,prolong the lag time
same,inhibition of contact activation of PPP,"contact activation; PPP incubated with kaolin, 0.94 to 4.6 μM",dose-dependent inhibition
same,4 × lag-time (ng/ml),contact activation; After heating,7.5 ng/mL
same,4 × lag-time (μM),contact activation; After heating,2.3 µM
same,4 × lag-time (ng/ml),contact activation; Before heating,7.8 ng/mL
same,4 × lag-time (μM),contact activation; Before heating,2.4 µM
same,potency compared with CTI on a molar basis,contact activation; [2],~2.5 times less potent
same,potency compared with CTI on a weight basis,contact activation; [2],equipotent
same,biological activity after heating,[1],does not affect its biological activity
same,stability at room temperature,[1]; left for weeks at room temperature,without loosing activity
same,Ki,"h-FXIIa; (Ki) (nM), inhibitor 30 min 95° C., h-FXIIa 5.01 nM",24 nM
same,Res. Act. (%),h-FXIIa; inhibitor 30 min 95° C.,94%
same,Res. Act. (%),h-FXIIa; inhibitor at RT during 72 hrs,102%
same,Residual activity,h-FXIIa,81.7%
same,Calculated total I,h-FXIIa,250 nM
same,Activity of FXIIa,h-FXIIa,33.5 ± 1.78 mA/min
same,Free FXIIa,h-FXIIa,3.93 nM
same,Res. Act. (%),h-FXIIa; inhibitor kept at −80° C.,100%
"Corn trypsin inhibitor (other, UniProt P01088 29-138, looked up, also called CTI) SAGTSCVPGWAIPHNPLPSCRWYVTSRTCGIGPRLPWPELKRRCCRELADIPAYCRCTALSILMDGAIPPGPDAQLEGRLEDLPGCPREVQRGFAATLVTEAECNLATIS",ETP,contact activation; [3],1116
same,Lag-time,contact activation; [3],18.62
same,Peak,contact activation; [3],385
same,ttPeak,contact activation; [3],20.06
same,biological activity after heating,[1],significantly inactivated
same,Residual activity,h-FXIIa,29.3%
same,Calculated total I,h-FXIIa,2.37 nM
same,Activity of FXIIa,h-FXIIa,66.3 ± 1.32 mA/min
same,Free FXIIa,h-FXIIa,7.77 nM

# — patent publication US20140296146A1, “Thermostable Inhibitors of Activation of the Blood Clotting System Through Contact with Foreign Surfaces” (Synapse B.V., priority 2011, published 2014)
